Molecular target: T1, Amine oxidase [flavin-containing] B (Bos taurus, UniProt P56560)
T1 sequence (P56560 whole entry): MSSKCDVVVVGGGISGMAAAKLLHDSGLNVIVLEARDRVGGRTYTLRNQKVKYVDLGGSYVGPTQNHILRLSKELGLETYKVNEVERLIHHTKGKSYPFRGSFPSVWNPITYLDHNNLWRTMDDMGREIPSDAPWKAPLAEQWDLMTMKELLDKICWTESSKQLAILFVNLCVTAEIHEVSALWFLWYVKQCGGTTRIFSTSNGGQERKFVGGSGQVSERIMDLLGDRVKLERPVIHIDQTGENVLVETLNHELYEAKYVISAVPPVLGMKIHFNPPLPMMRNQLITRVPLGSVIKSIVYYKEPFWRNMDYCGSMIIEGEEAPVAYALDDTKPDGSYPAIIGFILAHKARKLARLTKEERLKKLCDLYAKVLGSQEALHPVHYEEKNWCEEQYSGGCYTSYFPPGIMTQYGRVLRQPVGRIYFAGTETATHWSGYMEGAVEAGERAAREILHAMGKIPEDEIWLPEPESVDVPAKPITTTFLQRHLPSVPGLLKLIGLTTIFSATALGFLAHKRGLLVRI
Test: Inhibitory activity against Monoamine oxidase B isolated from beef liver mitochondria was determined

Ki: 77 µM
SMILES: CC[C@]1(O)C[C@@H]2CN(CCc3c([nH]c4ccccc34)[C@@](C(=O)OC)(c3cc4c(cc3OC)N(C)[C@H]3[C@@](O)(C(=O)OC)[C@H](OC(C)=O)[C@]5(CC)C=CCN6CC[C@]43[C@@H]65)C2)C1 [VINBLASTINE]

— ChEMBL document CHEMBL1124812, “Vinblastine and vincristine are inhibitors of monoamine oxidase B” (J Med Chem, 1990)
